Source: patent US6599931B1, “Test system for characterizing the compatibility of bioactive substances and polyvinylpyrrolidone” (Abbott GmbH & Co. KG, priority 1998, dated 2003)
Blank lines part the entries; values can stand above or below the compound they belong to.

Columns and labels:
[1] = Dissolving and recrystallization behavior of active ingredient in 1,3-bis(1-pyrrolidonyl)butane (DHVP) test system; settings: for RT: solution in DHVP: room temperature; for Sol. at (temperature at which solution forms): heated; for solubility in DHVP: comparison
From the text: The ratios of the amounts can in principle be chosen without restriction and naturally depend essentially on the properties of the active ingredient. However, it is advisable to choose the concentration ranges in the test system so that they correspond to active ingredient contents typical of extruded forms, that is to say generally from 0.1 to 70, preferably 10 to 30% by weight of active ingredient, based on the total weight of the test system. However, it is also possible in the individual case to prepare solutions or dispersions with a concentration of 60% by weight or even higher. It is preferred to carry out test series with increasing active ingredient contents. The active ingredient(s) are weighed out, mixed with the appropriate amounts of DHVP and preferably stirred, normally with a typical laboratory magnetic stirrer at 5 to 200 rpm. […] The heating is preferably carried out so as to correspond approximately to the heating rate in a subsequent melt formulation, that is to say at 0.5 to 5° C./min. The test system is preferably heated to a maximum of 140° C. However, it is also possible in the individual case to heat to the boiling point of DHVP. The test system is then allowed to cool to room temperature.
The prepared test systems are assessed spectroscopically. […] The recrystallization behavior is also assessed. The recrystallization behavior immediately after cooling to room temperature is an important criterion especially for test systems in which the active ingredient has been induced to dissolve by heating.
leaving to stand at room temperature for 24 hours
Investigation is always of whether the active ingredient has recrystallized out of the solution.

[2] = Melt extrudate with PVP K 30: formation of solid solution; format: physicochemical; settings: for Extrudate: solution (solid): 30% by weight in PVP, melt extrudate with PVP K 30; for solid solution with PVP: comparison
[3] = Solubility in DMSO (comparison)

- Recryst. (recrystallization) ([1]; 10% by weight in DHVP): Recryst.: −
- RT: solution in DHVP ([1]; 10% by weight in DHVP): RT: +
- Recryst. after (time to recrystallization) ([1]; 30% by weight in DHVP): 20 h
- Sol. at (temperature at which solution forms) ([1]; 30% by weight in DHVP): Sol. at 70 °C
- RT: solution in DHVP ([1]; 30% by weight in DHVP): RT: −
- Extrudate: solution (solid) [2]: +
Compound: CCS(=O)(=O)Oc1ccc2c(C)c(C)c(=O)oc2c1 [Esuprone]

- Recryst. (recrystallization) ([1]; 10% by weight in DHVP): Recryst.: −
- RT: solution in DHVP ([1]; 10% by weight in DHVP): RT: +
- Recryst. after (time to recrystallization) ([1]; 30% by weight in DHVP): 40 h
- Sol. at (temperature at which solution forms) ([1]; 30% by weight in DHVP): Sol. at 70 °C
- RT: solution in DHVP ([1]; 30% by weight in DHVP): RT: −
- Extrudate: solution (solid) [2]: +
Compound: CN(C)CCOC1=Cc2ccccc2Sc2ccc(Cl)cc21 [Zotepine]

More lines, now with the values behind:

Compound: COc1ccc(CCN(C)CCCC(C#N)(c2cc(OC)c(OC)c(OC)c2)C(C)C)cc1OC.Cl (stereo not shown) [Gallopamil HCl]
- Recryst. (recrystallization) ([1]; 10% by weight in DHVP): Recryst.: −
- Sol. at (temperature at which solution forms) ([1]; 10% by weight in DHVP): Sol. at 60 °C
- RT: solution in DHVP ([1]; 10% by weight in DHVP): RT: +
- Recryst. after (time to recrystallization) ([1]; 30% by weight in DHVP): 96 h
- Sol. at (temperature at which solution forms) ([1]; 30% by weight in DHVP): Sol. at 60 °C
- RT: solution in DHVP ([1]; 30% by weight in DHVP): RT: −
- Extrudate: solution (solid) [2]: +

Compound: CC(C)Cc1ccc(C(C)C(=O)O)cc1 (stereo not shown) [Ibuprofen]
- Recryst. (recrystallization) ([1]; 10% by weight in DHVP): Recryst.: −
- RT: solution in DHVP ([1]; 10% by weight in DHVP): RT: +
- Recryst. (recrystallization) ([1]; 30% by weight in DHVP): Recryst.: −
- RT: solution in DHVP ([1]; 30% by weight in DHVP): RT: +
- solubility in DHVP [1]: soluble
- Extrudate: solution (solid) [2]: +
- solid solution with PVP [2]: solid solution
- solubility in DMSO (dimethyl sulfoxide) [3]: soluble

Compound: CC(=O)Nc1ccc(O)cc1 [Paracetamol]
- Recryst. (recrystallization) ([1]; 10% by weight in DHVP): Recryst.: −
- Sol. at (temperature at which solution forms) ([1]; 10% by weight in DHVP): Sol. at 90 °C
- RT: solution in DHVP ([1]; 10% by weight in DHVP): RT: −
- Recryst. (recrystallization) ([1]; 30% by weight in DHVP): Recryst.: −
- Sol. at (temperature at which solution forms) ([1]; 30% by weight in DHVP): Sol. at 90 °C
- RT: solution in DHVP ([1]; 30% by weight in DHVP): RT: −
- Extrudate: solution (solid) [2]: +

Compound: Cn1c(=O)c2[nH]cnc2n(C)c1=O [Theophylline]
- solubility in DHVP [1]: insoluble
- solid solution with PVP [2]: no solid solution
- solubility in DMSO (dimethyl sulfoxide) [3]: soluble
